Experimental data as given in ChEMBL document CHEMBL3217551, “A concise synthesis of the potent inflammatory mediator 5-oxo-ETE” (Medchemcomm, 2012).
pEC50: −log10 of the molar value.

Experiments:
[1] = Stability of the compound in DMSO-d6 at room temperature after 4 to 21 days by NMR spectroscopy in presence of CDCl3; assay type: ADME
Oxoeicosanoid receptor 1 = Oxoeicosanoid receptor 1 (Homo sapiens, UniProt Q8TDS5); assay: Agonist activity at OXE receptor (unknown origin) expressed in HEK293 cells co-expressing Galpha subunit G16 assessed as calcium mobilization using Oregon Green 488 BAPTA-1/AM by fluorescence assay; assay type: functional, cell-based
[2] = Stability of the compound at room temperature after 19 days by NMR spectroscopy in presence of CDCl3; assay type: ADME; details: 456 h
[3] = Stability of the compound after 48 hrs by NMR spectroscopy; assay type: physicochemical
[4] = Stability of the compound after 36 hrs by NMR spectroscopy; assay type: physicochemical

Sequence of Oxoeicosanoid receptor 1 (Q8TDS5 whole entry): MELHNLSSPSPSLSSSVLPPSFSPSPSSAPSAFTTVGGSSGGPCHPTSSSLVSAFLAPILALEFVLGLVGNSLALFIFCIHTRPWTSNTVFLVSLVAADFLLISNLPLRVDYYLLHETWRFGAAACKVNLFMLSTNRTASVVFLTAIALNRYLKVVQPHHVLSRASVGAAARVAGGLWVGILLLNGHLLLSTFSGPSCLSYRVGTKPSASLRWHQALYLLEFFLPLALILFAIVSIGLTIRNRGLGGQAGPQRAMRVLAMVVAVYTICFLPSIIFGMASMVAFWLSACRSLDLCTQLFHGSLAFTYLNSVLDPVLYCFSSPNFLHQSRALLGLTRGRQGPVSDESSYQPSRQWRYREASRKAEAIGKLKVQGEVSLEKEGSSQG

For `CCCCC/C=C\C/C=C\C/C=C\C=C\C(=O)CCCC(=O)O` [5-OXO-ETE], the Stability [1] was “Stable”, the pEC50 (Oxoeicosanoid receptor 1) was 7.17 and the Stability [2] was “Stable”. For the same compound, the Stability [3] was “Unstable” and the Stability [4] was “Stable”.
